This note sets out measurements from patent publication US20070092907A1, “Methods of screening compound probes” (priority 2005, published 2007).

Entries after “also recorded” stand apart in the source; their conditions may differ.

In one assay the test system is rat glioma C6 cells. As to the kind of experiment: C6 cell uptake of phosphonium cations determined by MALDI-TOF-MS. Particulars: for percent cell uptake: plateau at ~90 minute after incubation; for cell uptake / accumulation (in words): up to 90 min. It is filed as cell-based. The procedure: MALDI-TOF Mass Spectrometry: MALIDI-TOF-MS experiments were performed on a Perseptive Voyager-DE RP Biospectrometry instrument (Framingham, Mass.). On the MALDI-TOF-MS target plate, 1 μL each of sample solution and 1 μL of the matrix were mixed. […] For each analysis, the laser spot randomly hit the sample to generate an averaged MALDI-TOF-MS spectrum. Three spectra were produced for each sample, and analyte to internal standard response ratios were averaged.
C6 cells (0.5×10^6/50 μL) were incubated with 10 μL 100 μM stock phosphonium salts solution (5 μM final concentration) and 140 μL HEPES buffer from 10 to 90 min at room temperature. The cells were centrifuged (250×g) for three minutes and washed twice with cold PBS buffer at specified times. Cell pellets were then lysed with 150 μL cold spectral grade water, followed by freezing in dry ice. Right before the MALDI-TOF-MS analysis, the frozen cell solution was thawed and centrifuged at 12000×g for 5 min. An aliquot of 90 μL of cell lysate and 10 μL of 10 μM internal standard MeTPP were mixed together, and 1 μL of solution was subjected to MALDI-TOF-MS analysis. Samples collected from three independent cell lysates were prepared for each study and subjected for MALDI-TOF-MS analysis.
Then they were diluted with C6 cell lysate (0.5×10^6 cells per 150 μL, these cells were not incubated with any phosphonium compound prior to lysis) to make various concentrations of compound and stored at 0° C. One micromolar MeTPP in 10 μL volume, which was used as internal standard, and 10 μL phosphonium cations with concentrations ranging from 0.1 μM-1.5 μM were mixed together thoroughly. Subsequently, 1 μL aliquot and 1 μL matrix αCHCA were deposited on the target plate and dried for MALDI-TOF-MS analysis. Triplicate samples were prepared and analyzed.

Assay [1] concerns C6 cells. As to the kind of experiment: Mitochondrial and plasma membrane potential dependent uptake in C6 cells (CCCP, valinomycin, high K+ HEPES buffer), MALDI-TOF-MS. The class given is cell-based, rat. The settings on record: for decrease in uptake on depolarization of the plasma membrane (high K+ vs low K+ buffer): 90 min exposure time; for effect of CCCP on uptake: CCCP at 1 μM concentration; for nature of uptake (membrane potential dependence): C6 cells, CCCP, valinomycin, high K+ buffer. Here is the method: K^+-ionophore valinomycin was dissolved in ethanol and also diluted with low K^+ buffer. Final concentrations of ethanol and DMSO were below 0.1%. Varying concentrations of CCCP and valinomycin were added to the 0.5×10^6 cells in low K^+ HEPES buffer 30 min prior to the start of the experiment. […] The viability and the integrity of the cells after treatment with inhibitors and high K^+ buffer were examined using Trypan blue.

In assay [2] the test system is C6 cells. As to the kind of experiment: C6 cell uptake of 3H-TPP by scintillation counting. The settings on record: 5 μM, 25° C., 90 min. It is filed as cell-based, rat. Here is the method: Cell Uptake of ^3H-tetraphenylphosphonium (^3H-TPP): C6 cell uptake of ^3H-TPP was also performed for direct comparison with cell uptakes of TPP and FTPP determined through MALDI-TOF-MS. Briefly, 0.5×10^6 cells were incubated with 5 μM ^3H-TPP [^3H-TPP was spiked with TPP to make a final concentration of 12.21 GBq/mmol (0.33 Ci/mmol)] from 10 to 90 min in a 200 μL HEPES buffer at room temperature. Cell lysate was prepared using the same procedure as described in the Cell Uptake Studies of Phosphonium Cations section, and the radioactivity of cell lysate was counted. Triplicate samples were obtained for all uptake studies. Data were expressed as the accumulation of the amount of probe in each cell or percent cell uptake (fmols/cell, % cell uptake). ^3H analyses were performed with a Beckman LS-6500 liquid scintillation counter with Biosafe II scintillation fluid (Research Products International, Mount prospect, Ill.). The attenuation and quenching effects resulting from the cell lysate used in this experiment were determined to be negligible, and the disintegration per minute (dpm) was obtained by correcting for background activity and efficiency (69.3% for ^3H).

`C[P+](c1ccccc1)(c1ccccc1)c1ccccc1.[Br-]` [MeTPP, methyltriphenyl phosphonium bromide, reference compound] came in with a percent cell uptake in the assay with rat glioma C6 cells (5 μM, C6 cells) of 1.06%.

Turning to `Cl.[Cl-].c1ccc([P+](Cc2ccccn2)(c2ccccc2)c2ccccc2)cc1` [PyTPP, triphenyl(2-pyridylmethyl)phosphonium chloride hydrochloride], the “uptake compared with tetraphenylphosphonium analogs (TPP and FTPP)” value in the assay with rat glioma C6 cells (5 μM, C6 cells) is “much lower uptake”.

`Fc1ccc([P+](c2ccccc2)(c2ccccc2)c2ccccc2)cc1` [FTPP, 4-Fluorophenyltriphenyl phosphonium]: the “normalized uptake in presence of valinomycin” value in the assay on C6 cells [1] (5 μM probe, 10 μM valinomycin, low K+ HEPES buffer, one hour incubation) is “about 72.8±3.6%”. Besides, the “normalized uptake in presence of CCCP” value with C6 cells [1] (5 μM probe, 50 μM CCCP, low K+ HEPES buffer, one hour incubation) was “about 27.3±2.3%”. Further, in the assay with C6 cells [1] (5 μM probe), the “decrease in uptake on depolarization of the plasma membrane (high K+ vs low K+ buffer)” value (from here on “decrease in uptake on depolarization”) is 3.5 fold and the “effect of CCCP on uptake” value was “significantly inhibited”. Besides, the “effect of valinomycin on uptake” value in the assay on C6 cells [1] (5 μM probe, valinomycin at 1 μM concentration) was “significantly inhibited”. In the assay on C6 cells [1], the “nature of uptake (membrane potential dependence)” value (“nature of uptake” for short) was “electrogenic and driven by the plasma and mitochondrial membrane potentials”. The “accumulation relative to MeTPP” value in the assay on rat glioma C6 cells (5 μM, C6 cell culture) is recorded as 8 times. Besides, in the assay on rat glioma C6 cells (5 μM, C6 cells), the “cell uptake relative to that of TPP” value is “over 80%”; the percent cell uptake is given as 9.33%; the “cell uptake / accumulation (in words)” value was “good cell uptake; also recorded: higher C6 cell uptake than both F4TPP and FBnTP”.

With `Fc1ccc(C[P+](c2ccccc2)(c2ccccc2)c2ccccc2)cc1.[I-]` [FBnTP, 4-fluorobenzyl-triphenylphosphonium iodide], in the assay with C6 cells [1] (5 μM probe), the “decrease in uptake on depolarization” value was 1.5 fold and the “effect of CCCP on uptake” value was “can also be inhibited”. Further, the “nature of uptake” value in the assay on C6 cells [1] is “electrogenic and driven by the plasma and mitochondrial membrane potentials”. Besides, the “uptake compared with tetraphenylphosphonium analogs (TPP and FTPP)” value in the assay on rat glioma C6 cells (5 μM, C6 cells) is “much lower uptake”.

Turning to `Fc1ccc([P+](c2ccc(F)cc2)(c2ccc(F)cc2)c2ccc(F)cc2)cc1.[I-]` [F4TPP, Tetra-4-fluorophenylphosphonium iodide], in the assay with C6 cells [1] (5 μM probe), the “decrease in uptake on depolarization” value is listed as 3.0 fold and the “effect of CCCP on uptake” value is recorded as “can also be inhibited”. Moreover, the “nature of uptake” value in the assay with C6 cells [1] is “electrogenic and driven by the plasma and mitochondrial membrane potentials”.

Regarding `[Br-].c1ccc([P+](c2ccccc2)(c2ccccc2)c2ccccc2)cc1` [TPP, tetraphenylphosphonium bromide, reference compound], the “amount accumulated per cell” value in the assay on rat glioma C6 cells (5 μM, 10 mins post incubation) was 0.11 fmol TPP per cell. Further, in the assay on rat glioma C6 cells (5 μM, C6 cells), the “incubation time to maximum / steady-state uptake” value is 60 min and the percent cell uptake is listed as 11.44%.

Consider ^3H-tetraphenylphosphonium [^3H-TPP], for which the “time course of uptake by scintillation counting compared with MALDI-TOF-MS of TPP” value with C6 cells [2] is “almost identical pattern and the same levels of uptake”.

On to `O=C(O)CCCC[P+](c1ccccc1)(c1ccccc1)c1ccccc1.[Br-]` [CoTPP, (4-carboxybutyl)triphenyl-phosphonium bromide], for which the “cell uptake / accumulation (in words)” value with rat glioma C6 cells (5 μM, C6 cells) was “either does not accumulate or accumulates minimally”. In addition, in the assay on rat glioma C6 cells (C6 cell lysate after incubation with compound), the “detection of compound in cell lysate by MALDI-TOF-MS” value is recorded as “could not be identified”.

As to `CCCC[P+](c1ccccc1)(c1ccccc1)c1ccccc1.[Cl-]` [BuTPP, butyltriphenylphosphonium chloride], the “uptake compared with tetraphenylphosphonium analogs (TPP and FTPP)” value with rat glioma C6 cells (5 μM, C6 cells) is “much lower uptake”.

For `CCCC[P+](CCCC)(CCCC)CCCC.[Br-]` [TBuP, tetrabutylphosphonium bromide], in the assay with rat glioma C6 cells (5 μM, C6 cells), the “decreased cellular accumulation compared to TPP” value is given as ~18 fold and the “cell uptake / accumulation (in words)” value is reported as “lower cell uptake”. The “cell uptake / accumulation (in words)” value with rat glioma C6 cells (5 μM, C6 cells, listed as TBuPP) is recorded as “very low cell accumulaiton”.

Regarding `BrCCCC[P+](c1ccccc1)(c1ccccc1)c1ccccc1.[Br-]` [BrTPP, (4-bromobutyl) triphenyl-phosphine bromide], the “uptake compared with tetraphenylphosphonium analogs (TPP and FTPP)” value in the assay on rat glioma C6 cells (5 μM, C6 cells) is “much lower uptake”.
